Measured values: patent publication US20240025856A1, “1,2,3,4-TETRAHYDROQUINOLINE DERIVATIVES AS INHIBITORS OF THE YAP/TAZ-TEAD ACTIVATION FOR TREATING CANCER” (KATHOLIEKE UNIVERSITEIT LEUVEN, priority 2020, published 2024)

test system: YAP/TAZ-TEAD transcription; assay: Reporter gene assay for measuring the inhibition of YAP/TAZ-TEAD transcription (TEAD-responsive element luciferase reporter in Hek293T cells); type: cell-based; details: Hek293T cells transiently transfected with TEAD-responsive element luciferase reporter; 24 hours incubation
Experimental: Hek293T cells are cultured in DMEM supplemented with 10% fetal bovine serum, Sodium pyruvate, Sodium bicarbonate, L-glutamine. The cells are harvested and transiently transfected with TEAD-responsive element luciferase reporter. Transfected cells are plated in 384-wells plate containing pre-diluted compounds. After 24 hours incubation at 37° C./5% CO2, assay plates were cooled down to RT and levelled to an equal volume per well, prior to the addition of 25 uL luciferase substrate SteadyLite (Perkin Elmer)/well. The plate was shaken for 10 min at 600 rpm, centrifuged for 1 min at 500 rpm and measured with an Envision reader (PerkinElmer). The amount of relative light units produced by the TEAD reporter is used to calculated percent of inhibition. The percent of reporter inhibition was calculated in the presence of a positive control inhibitor (100% inhibition) versus a condition with the presence of the vehicle basal activity of the reporter (0% inhibition). The ability of a test compound to inhibit this activity was determined as: Percentage inhibition=[[…]((RLU determined in the presence of vehicle−RLU determined for sample with test compound present) divided by (RLU determined in the presence of vehicle−RLU determined for sample with positive control inhibitor))]*100
The activities of example compounds tested are depicted in the table below. The activity ranges A, B and C refer to IC50 values in the reporter gene assay as follows: “A”: IC50<1 μM; “B”: 1 μM≤IC50≤20 μM and “C”: IC50>20 μM; NT=not tested.

Compound	IC50
OCCNC1Cc2ccccc2N(c2ccc(C(F)(F)F)cc2)C1 (single isomer, unassigned) [043-En1, (R)- or (S)-2-((1-(4-(trifluoromethyl)phenyl)-1,2,3,4-tetrahydroquinolin-3-yl)amino)ethan-1-ol]	1000 to 20000 nM
OCCNC1Cc2ccccc2N(c2ccc(C(F)(F)F)cc2)C1 (single isomer, unassigned) [043-En2, (R)- or (S)-2-((1-(4-(trifluoromethyl)phenyl)-1,2,3,4-tetrahydroquinolin-3-yl)amino)ethan-1-ol]	< 1000 nM
OCCCNC1Cc2ccccc2N(c2ccc(C(F)(F)F)cc2)C1 (single isomer, unassigned) [045-En1, (R)- or (S)-3-((1-(4-(trifluoromethyl)phenyl)-1,2,3,4-tetrahydroquinolin-3-yl)amino)propan-1-ol]	1000 to 20000 nM
OCCCNC1Cc2ccccc2N(c2ccc(C(F)(F)F)cc2)C1 (single isomer, unassigned) [045-En2, (R)- or (S)-3-((1-(4-(trifluoromethyl)phenyl)-1,2,3,4-tetrahydroquinolin-3-yl)amino)propan-1-ol]	1000 to 20000 nM
FC(F)(F)c1ccc(N2CC(C3CC(Br)=NO3)Cc3ccccc32)cc1 (single isomer, unassigned) [Cpd. No. 194(Dia1)-En2, 3-bromo-5-(1-(4-(trifluoromethyl)phenyl)-1,2,3,4-tetrahydroquinolin-3-yl)-4,5-dihydroisoxazole]	> 20000 nM
FC(F)(F)c1ccc(N2CC(C3CC(Br)=NO3)Cc3ccccc32)cc1 (single isomer, unassigned) [Cpd. No. 194(Dia2)-En1, 3-bromo-5-(1-(4-(trifluoromethyl)phenyl)-1,2,3,4-tetrahydroquinolin-3-yl)-4,5-dihydroisoxazole]	1000 to 20000 nM
FC(F)(F)c1ccc(N2CC(C3CC(Br)=NO3)Cc3ccccc32)cc1 (single isomer, unassigned) [Cpd. No. 194(Dia2)-En2, 3-bromo-5-(1-(4-(trifluoromethyl)phenyl)-1,2,3,4-tetrahydroquinolin-3-yl)-4,5-dihydroisoxazole]	< 1000 nM

Now from value to molecule:

IC50	Compound
> 20000 nM	C=CC(=O)NCC1Cc2c(C(=O)NS(C)(=O)=O)cccc2N(c2ccc(C(F)(F)F)cc2)C1 (single isomer, unassigned) [157-En1, (R)- or (S)-3-(acrylamidomethyl)-N-(methylsulfonyl)-1-(4-(trifluoromethyl)phenyl)-1,2,3,4-tetrahydroquinoline-5-carboxamide]
1000 to 20000 nM	C=CC(=O)NCC1Cc2c(CC(=O)O)cccc2N(c2ccc(C(F)(F)F)cc2)C1 (stereo not drawn) [Cpd. No. 161, 2-(3-(acrylamidomethyl)-1-(4-(trifluoromethyl)phenyl)-1,2,3,4-tetrahydroquinolin-5-yl)acetic acid]
> 20000 nM	C=CC(=O)NCC1Cc2c(CC(=O)O)cccc2N(c2ccc(C(F)(F)F)cc2)C1 (stereo not drawn) [Cpd. No. 161-En1, 2-(3-(acrylamidomethyl)-1-(4-(trifluoromethyl)phenyl)-1,2,3,4-tetrahydroquinolin-5-yl)acetic acid]
1000 to 20000 nM	C=CC(=O)NCC1Cc2c(CC(=O)O)cccc2N(c2ccc(C(F)(F)F)cc2)C1 (stereo not drawn) [Cpd. No. 161-En2, 2-(3-(acrylamidomethyl)-1-(4-(trifluoromethyl)phenyl)-1,2,3,4-tetrahydroquinolin-5-yl)acetic acid]
1000 to 20000 nM	C=CC(=O)NCC1Cc2c(Cc3noc(=O)[nH]3)cccc2N(c2ccc(C(F)(F)F)cc2)C1 (stereo not drawn) [Cpd. No. 168-En1, N-((5-((5-oxo-4,5-dihydro-1,2,4-oxadiazol-3-yl)methyl)-1-(4-(trifluoromethyl)phenyl)-1,2,3,4-tetrahydroquinolin-3-yl)methyl)acrylamide]
< 1000 nM	C=CC(=O)NCC1Cc2c(Cc3noc(=O)[nH]3)cccc2N(c2ccc(C(F)(F)F)cc2)C1 (stereo not drawn) [Cpd. No. 168-En2, N-((5-((5-oxo-4,5-dihydro-1,2,4-oxadiazol-3-yl)methyl)-1-(4-(trifluoromethyl)phenyl)-1,2,3,4-tetrahydroquinolin-3-yl)methyl)acrylamide]

same assay, conditions: Homo sapiens, HEK-293T, 24 h, Hek293T cells transiently transfected with TEAD-responsive element luciferase reporter; 24 hours incubation

Compound	IC50
C=CC(=O)NC1Cc2ccccc2N(c2ccc(C(F)(F)F)cc2)C1 (single isomer, unassigned) [001-En1]	< 1000 nM
NCC1Cc2ccccc2N(c2ccc(C(F)(F)F)cc2)C1 (stereo not drawn) [170 (Int-10), (1-(4-(trifluoromethyl)phenyl)-1,2,3,4-tetrahydroquinolin-3-yl)methanamine]	1000 to 20000 nM
NC1Cc2ccccc2N(c2ccc(C(F)(F)F)cc2)C1 (stereo not drawn) [171 (Int-3), 1-(4-(trifluoromethyl)phenyl)-1,2,3,4-tetrahydroquinolin-3-amine]	1000 to 20000 nM
C=CC(=O)NC1Cc2nc(OC)ccc2N(c2ccc(C(F)(F)F)cc2)C1 (stereo not drawn) [Cpd. No. 141, N-(6-methoxy-1-(4-(trifluoromethyl)phenyl)-1,2,3,4-tetrahydro-1,5-naphthyridin-3-yl)acrylamide]	< 1000 nM
C=CC(=O)NC1Cc2ccccc2N(C(=O)C2CCCCC2)C1 (stereo not drawn) [Cpd. No. 173, N-(1-(cyclohexanecarbonyl)-1,2,3,4-tetrahydroquinolin-3-yl)acrylamide]	> 20000 nM
C=CC(=O)NC1Cc2ccccc2N(Cc2ccccc2)C1 (stereo not drawn) [Cpd. No. 174, N-(1-benzyl-1,2,3,4-tetrahydroquinolin-3-yl)acrylamide]	< 1000 nM
C=CC(=O)NC1Cc2ccccc2N(CC2CCCCC2)C1 (stereo not drawn) [Cpd. No. 175, N-(1-(cyclohexylmethyl)-1,2,3,4-tetrahydroquinolin-3-yl)acrylamide]	< 1000 nM

Next, values leading:

IC50	Compound
< 1000 nM	C=CC(=O)NCC1Cc2ccccc2N(c2ccc(C(F)(F)F)cc2)C1 (single isomer, unassigned) [084-En2, N-((1-(4-(trifluoromethyl)phenyl)-1,2,3,4-tetrahydroquinolin-3-yl)methyl)acrylamide]
> 20000 nM	C=CC(=O)NCC1Cc2c(C(=O)O)cccc2N(c2ccc(C(F)(F)F)cc2)C1 (stereo not drawn) [Cpd. No. 156, 3-(acrylamidomethyl)-1-(4-(trifluoromethyl)phenyl)-1,2,3,4-tetrahydroquinoline-5-carboxylic acid]
> 20000 nM	C=CC(=O)NCC1Cc2c(C(=O)NS(=O)(=O)C3CC3)cccc2N(c2ccc(C(F)(F)F)cc2)C1 (stereo not drawn) [Cpd. No. 158, 3-(acrylamidomethyl)—N-(cyclopropylsulfonyl)-1-(4-(trifluoromethyl)phenyl)-1,2,3,4-tetrahydroquinoline-5-carboxamide]
< 1000 nM	C=CC(=O)NCC1Cc2c(Cc3noc(=O)[nH]3)cccc2N(c2ccc(C(F)(F)F)cc2)C1 (stereo not drawn) [Cpd. No. 168, N-((5-((5-oxo-4,5-dihydro-1,2,4-oxadiazol-3-yl)methyl)-1-(4-(trifluoromethyl)phenyl)-1,2,3,4-tetrahydroquinolin-3-yl)methyl)acrylamide]
> 20000 nM	C=CC(=O)NC1Cc2c(C(=O)NC#N)cccc2N(c2ccc(C(F)(F)F)cc2)C1 (stereo not drawn) [Cpd. No. 169, 3-acrylamido-N-cyano-1-(4-(trifluoromethyl)phenyl)-1,2,3,4-tetrahydroquinoline-5-carboxamide]
< 1000 nM	C=CC(=O)NCC1CCc2ccccc2N1c1ccc(C(F)(F)F)cc1 (stereo not drawn) [Cpd. No. 178, N-((1-(4-(trifluoromethyl)phenyl)-1,2,3,4-tetrahydroquinolin-2-yl)methyl)acrylamide]
< 1000 nM	CC(=O)NC/C=C/C(=O)NCC1Cc2ccccc2N(c2ccc(C(F)(F)F)cc2)C1 (stereo not drawn) [Cpd. No. 193, (E)-4-acetamido-N-((1-(4-(trifluoromethyl)phenyl)-1,2,3,4-tetrahydroquinolin-3-yl)methyl)but-2-enamide]
